From patent publication US20240002435A1, “SYNTHETIC PEPTIDE AND APPLICATION THEREOF” (Wuhan Innerse Pharmaceutical Inc., priority 2021, published 2024)
“And” between values parts separate entries of the source, which are not always exact repeats. Identical values can stand only once. Where no end group is shown, it is not given here. [ ]: non-standard residue; d: D form. βAla = NCCC(=O)O

Columns and labels:
[1] = system: rat model of cerebral ischemia (middle cerebral artery occlusion, MCAO); test: MCAO rat cerebral ischemia model, TTC staining, cerebral infarct volume (Example 9); format: in vivo, SD rats; conditions: for Cerebral infarction volume (TTC quantification), mean value / Cerebral infarction volume (TTC quantification): 3 mg/kg tail vein 1-2 h after suturation, read 22-24 h; for Cerebral infarction volume (TTC quantification), mean value: mean of 6 rats
Method: (§1) In order to determine the application of the synthetic peptides provided by the present invention in neurological diseases, the present invention uses SD rats as experimental objects, and performs middle cerebral artery occlusion method (MCAO) to prepare rat model of cerebral ischemia. These rats were injected drugs intravenously 1-2 hours after ischemia, and a behavioral observation and scoring was conducted for each animal after 22-24 hours. After the behavioral observation, the experimental rats were euthanized and their brains were removed, cut to sections and stained with TTC for quantitative analysis, and the cerebral infarct volume % was calculated.
(§2) The experimental SD rat was weighed and anesthetized with chloral hydrate. After anesthesia, the limbs of the rat were fixed, and the rat was placed in a supine position, connected to the small-animal monitor, and monitored for important physiological parameters such as body temperature, blood pressure and heart rate, etc. The rat's neck was shaved and disinfected with 75% alcohol cotton ball. A middle incision of about 2 cm length was then made on the neck of the experimental rat, and the submandibular gland of the rat was bluntly separated while avoiding damage to the gland. Then, the left common carotid artery (CCA) of the experimental rat was bluntly separated, and the internal carotid artery (ICA) and external carotid artery (ECA) were carefully separated upward along the CCA. Any damage to vagus nerves was avoided during the separation. The CCA and ICA were clamped respectively with two artery clamps, and the distal end of the ECA was cut off and a silicone suture emboli was inserted into the ECA “port” to the ICA artery clamp, then the artery clamp was quickly loosened and the tip of the suture emboli was put in through the artery clamp quickly before clamping the ICA again. This step was repeated and the suture emboli was put in further until the black mark of the suture emboli reached the bifurcation of the ECA and ICA, and the tip of the suture emboli blocked the middle cerebral artery and then the ECA “port” and the suture emboli was tied tightly using a thread in order to prevent the “escape” of suture emboli or bleeding after the rat waked up. The artery clamps on the CCA and ICA were then loosed and removed to restore the tissue to its original position, and an appropriate amount of penicillin was applied to prevent wound infection. A medical suture needle with thread was used to suture, and the wound was disinfected using povidone-iodine again after the suturation. The experimental rats were monitored with the small-animal monitor to evaluate if their physiological parameters were normal, and the rats were placed on a small-animal electric blanket to keep their body temperature until they waked up, and placed in animal cages.
(§3) The drug to be tested was prepared as 3 mg/mL solution. The drug was dosed via tail vein 1-2 h after the suturation.
(§4) During the drug administration, the rat was fastened with a fastening device, and the drug to be tested was injected into the tail vein of the rat at 3 mg/kg using 1 mL syringe, the drug was injected slowly to reduce the cardiopulmonary load of the experimental rat.
(§5) The animals were divided into different test groups, with 6 rats for each group.
(§6) Drug groups S1 (NA1), S8 (beta-Ala-His-Gly) and S9 (Gly-beta-Ala-His): administered via tail vein after the suturation;
After behavioral observations, experimental rats were euthanized and their brains were removed. The brain tissue was transversely cut into 6 slices with a 2 mm thickness, then transferred to TTC staining solution, incubated in a 37° C. incubator without light for 10 min, and taken pictures. The TTC-stained brain tissue and the remaining non-stained brain tissue were stored at −20° C.
Quantitative analysis of photos after TTC staining was performed using Image J software. […]

[2] = system: rat model of cerebral ischemia (middle cerebral artery occlusion, MCAO); test: MCAO rat cerebral ischemia model, blinded behavioral scoring 0-5 points (Example 9); format: in vivo, SD rats; conditions: 3 mg/kg tail vein; for Behavioral score, mean value / Behavioral score: 22-24 h after suturation, scale 0-5 points; for Behavioral score, mean value: mean of 6 rats
Method: as §1, §2, §3, §4, §5, §6
The behavioral observation and scoring were performed on each animal 22-24 h after the suturation.

[3] = system: patients with acute ischemic stroke (AIS) undergoing endovascular thrombectomy; conditions: 2.6 mg/kg intravenous injection; cited from earlier work
[4] = system: suture-embolized MCAO model, rat cerebral ischemic stroke; test: Dose-effect experiment, rat neurological function score NSS (Example 10); format: in vivo, Sprague-Dawley (SD) rats; conditions: mean ± SD
Method: Measurement time: 24 hours before and after modeling;
Measurement method: a motor function test, sensory test, balance test, and reflex and abnormal behavior test were performed on animals, according to the rat neurological function score scale (NS S) for details.

[5] = system: suture-embolized MCAO model, rat cerebral ischemic stroke; test: Dose-effect experiment, Bederson score (Example 10); format: in vivo, Sprague-Dawley (SD) rats; conditions: 3 mg/kg group; 1 hour after ischemia, i.e. before dosing (model check); mean ± SD
Method: Measurement time: 1 hour after ischemia on the day of modeling;
Animals measured: all the animals survived in surgery;
Measurement method: the Bederson scoring standard was used to score animals.

[6] = system: suture-embolized MCAO model, rat cerebral ischemic stroke; test: Dose-effect experiment, suture-embolized MCAO ischemia-reperfusion, TTC infarct size and inhibition rate (Example 10); format: in vivo, Sprague-Dawley (SD) rats
Method: The establishment of rat model: the rats were placed in an anesthesia induction box filled with 3.0% isoflurane for anesthesia induction. Anesthesia-induced animals were transferred to the operating table, and anesthesia was maintained with 2.0%˜2.5% isoflurane at 200 mL/min using a small-animal gas anesthesia machine, and the eyelid reflex and pain response of the rats were observed. The surgery can be started only after the eyelid reflex response and the pain response on limbs and tail disappeared. • A. Isolating and exposing blood vessels: the skin of the surgical area was shaved, and the rat was placed under a surgical microscope. The skin of the rat was cut along the midline with ophthalmic scissors, with a cut of about 2 cm length. Through the right neck of the rat, the muscle tissue of the right neck was bluntly isolated and opened with a microforcep to expose the right common carotid artery (CCA), and then isolated upward along the common carotid artery to further expose the external carotid artery (ECA) and internal carotid artery (ICA); • B. The ECA was ligated and the ICA was temporarily clamped; the proximal end and distal end of CCA were threaded separately, the distal end was tied tightly and the proximal end was tied with a loose knot, and a small incision was made between the two threads; • C. Inserting the suture emboli: A No. 4-0 suture emboli was inserted through the incision of CCA, pushed slowly and gently into the internal carotid artery, and stopped at the artery clamp of ICA, the pre-set thread was tied tightly (to avoid severe bleeding when pushing the suture emboli), then the artery clamp that blocked the blood flow of ICA was removed, and the suture emboli was immediately pushed into ICA until entering into the cranium. At the moment, one should be careful not to insert the suture emboli into the pterygopalatine artery, which is another branch of the internal carotid artery (the pterygopalatine artery is one of the extra-cranial branches of ICA; when the suture emboli entered the pterygopalatine artery to a depth of about 10 mm, it cannot be inserted further, at the moment one should slightly draw back the suture emboli, adjust the direction, and insert again); • D. Fixing the suture emboli and suturing the incision: if one felt slight resistance when the suture emboli was inserted about 18 mm depth from the bifurcation of the common carotid artery, it means that the tip of the suture emboli has entered into the cerebral anterior artery (ACA), and the side wall of the suture emboli has blocked the opening of the middle cerebral artery; at the moment, the insertion was terminated and the time was recorded. […]

[7] = system: experimental cerebral ischemia-reperfusion in animals; conditions: cynomolgus monkeys, preclinical ischemic stroke model; cited from earlier work
[8] = Dose-effect experiment, body weight of MCAO model animals (Example 10); conditions: mean ± SD
Method: The establishment of rat model: the rats were placed in an anesthesia induction box filled with 3.0% isoflurane for anesthesia induction. Anesthesia-induced animals were transferred to the operating table, and anesthesia was maintained with 2.0%˜2.5% isoflurane at 200 mL/min using a small-animal gas anesthesia machine, and the eyelid reflex and pain response of the rats were observed. The surgery can be started only after the eyelid reflex response and the pain response on limbs and tail disappeared. • A. Isolating and exposing blood vessels: the skin of the surgical area was shaved, and the rat was placed under a surgical microscope. The skin of the rat was cut along the midline with ophthalmic scissors, with a cut of about 2 cm length. […]
Animals measured: all the surviving experimental animals planned to be measured;
Measurement time: the body weight was measured at least twice during the accommodation, and each batch of rats were weighed once on the day before the surgery and on the day of dissection to calculate the amount of drug administered and the anesthetic applied; the body weight was measured twice a week after the surgery.

[9] = 3 mg/kg group, D 0 = 1 day before surgery (baseline)
[10] = 3 mg/kg i.v., D 2 = 1 day after surgery

Substance: Gly-[βAla]-His [S9]
- Infarct volume, statistical comparison with S1 (NA1) ([1]; 3 mg/kg tail vein): not statistically different from S1
- Cerebral infarction volume (TTC quantification), mean value [1]: 0.197±0.059 and 0.197
- Cerebral infarction volume (TTC quantification) ([1]; rat No. 1): 0.239
- Cerebral infarction volume (TTC quantification) ([1]; rat No. 2): 0.206
- Cerebral infarction volume (TTC quantification) ([1]; rat No. 3): 0.208
- Cerebral infarction volume (TTC quantification) ([1]; rat No. 4): 0.263
- Cerebral infarction volume (TTC quantification) ([1]; rat No. 5): 0.171
- Cerebral infarction volume (TTC quantification) ([1]; rat No. 6): 0.095
- Behavioral score, statistical comparison with S1 (NA1) [2]: not statistically different from S1
- Behavioral score, mean value [2]: 2.0
- Behavioral score, mean value ([2]; listed as Gly-beta-Ala-His): 2.0±0.9
- Behavioral score ([2]; rat No. 1): 3
- Behavioral score ([2]; rat No. 2): 3
- Behavioral score ([2]; rat No. 3): 2
- Behavioral score ([2]; rat No. 4): 2
- Behavioral score ([2]; rat No. 5): 1
- Behavioral score ([2]; rat No. 6): 1

Substance: YGRKKRRQRRRKLSSIESDV [S1, Nerinetide]
- Effect on patient's prognosis [3]: improved patient's prognosis
- Cerebral infarction volume (TTC quantification), mean value [1]: 0.157
- Cerebral infarction volume (TTC quantification) ([1]; rat No. 1): 0.187
- Cerebral infarction volume (TTC quantification) ([1]; rat No. 2): 0.218
- Cerebral infarction volume (TTC quantification) ([1]; rat No. 3): 0.153
- Cerebral infarction volume (TTC quantification) ([1]; rat No. 4): 0.145
- Cerebral infarction volume (TTC quantification) ([1]; rat No. 5): 0.107
- Cerebral infarction volume (TTC quantification) ([1]; rat No. 6): 0.134
- NSS score D 0 [4, 9]: 0 ± 0
- NSS score D 2 [4, 10]: 8.00±0.76
- Bederson [5]: 3 ± 0
- Behavioral score, mean value [2]: 2.0
- Behavioral score, mean value ([2]; listed as NA1): 2.0±0.6
- Behavioral score ([2]; rat No. 1): 2
- Behavioral score ([2]; rat No. 2): 2
- Behavioral score ([2]; rat No. 3): 2
- Behavioral score ([2]; rat No. 4): 2
- Behavioral score ([2]; rat No. 5): 1
- Behavioral score ([2]; rat No. 6): 3
- Infarct weight ([6]; 3 mg/kg i.v. once within 10 min after reperfusion, 24 h after treatment, mean ± SD): 0.24 ± 0.02 g
- Infarct size ([6]; 3 mg/kg i.v. once within 10 min after reperfusion, TTC 24 h after treatment, infarct weight / whole brain weight, mean ± SD): 16.74±3.14%
- Inhibition rate of cerebral infarction ([6]; 3 mg/kg i.v., calculated from infarct size vs model control group): 33%
- Effect on infarct size of experimental cerebral ischemia-reperfusion [7]: reduce the infarct size
- Weight D 0 [8, 9]: 251.91 ± 8.69 g
- Weight D 2 [8, 10]: 203.7 ± 10.94 g
